Patent US20180273528A1 (LES LABORATOIRES SERVIER, priority 2015, published 2018)

Tests used:
[1] = molecular target: DYRK1A (Homo sapiens, UniProt Q13627); experiment: Cellular DYRK1 autophosphorylation assay in U2-OS cells; format: cell-based; parameters: full-length, wild-type human DYRK1A (NM_001396) with an HA tag; expressed in transfected cells; host or cells: human U2-OS osteosarcoma cells, transient transfection of a pcDNA3.1 plasmid; conditions: U2-OS cells transfected with HA-tagged human DYRK1A, 5 hours exposure; read-out: IC50 (μM) P-Ser520-Dyrk1A -Cell assay
Protocol: On day 2, cells were exposed to a range of concentrations of the test compounds of the invention for 5 hours. […] The relative levels of phospho-Ser520-DYRK1A were assayed using either western blotting or the Mesoscale ELISA platform. For analysis by western blot, lysates were diluted into Laemmli sample buffer (Bio-Rad) containing 5% v/v β-mercaptoethanol, heated for 5 min at 95° C., and resolved on Tris-glycine gels or NuPage Bis-Tris gels (Novex; Invitrogen). Biotinylated molecular weight standards (Cell Signaling Technology) were included in all gels. Proteins were transferred to nitrocellulose membranes (Hybond, ECL; Amersham), which were blocked in Tris-buffered saline/0.1% tween 20 (TBST) containing 5% milk, and probed at 4° C. overnight with anti-phospho-Ser520-DYRK1A antibody (Eurogentec SE6974-75; 0.23 μg/ml in 5% BSA) or anti DYRK1A antibody (Abnova H00001859; 0.5 μg/ml in 5% milk). Peroxidase-conjugated secondary antibodies were diluted into 5% milk and applied to membranes for 1 h at 20° C. Chemiluminescence detection was performed using the ECL plus western blotting detection kit (Amersham) and was recorded on ECL plus hyperfilm (Amersham). Blots were scanned using the Bio-Rad GS-800 calibrated densitometer and quantitative analysis of western blots was performed using TotalLab software (Amersham). IC50 values for inhibition of phospho-Ser520-DYRK1A were calculated from dose-response curves plotting the ratio between phospho-Ser520-DYRK1A and total DYRK1A signals at each concentration. […] Anti-phospho-Ser520-DYRK1A antibody (Eurogentec SE6974-75; […]) and anti DYRK1A antibody (Abnova H00001859; 3 μg/ml) was then added for 1 hour at RT, followed by addition of Sulfa-TAG anti-rabbit detection antibody (ref MSD R32AB; 1 μg/ml) and Sulfa-TAG anti-mouse detection antibody (ref MSD R32-AC-1; 1 μg/ml). After a further 1 hour, Read Buffer was added and plates were read on the Sector Imager 2400 (Mesoscale). IC50 values for inhibition of phospho-Ser520-DYRK1A were calculated from dose-response curves.

[2] = molecular target: T1, His-TEV-DYRK1A Kinase domain (aa127-485) (Homo sapiens, UniProt Q13627); experiment: Kinase ADP assay (ADP Hunter), DYRK1A kinase domain; format: biochemical; conditions: 20 μM ATP
T1 construct: His-TEV-DYRK1A Kinase domain (aa127-485); His tag (N); TEV protease cleavage site (N)
Protocol: The enzyme reaction was conducted in assay buffer (pH 7.4), containing 15 mM Hepes; 20 mM NaCl; 1 mM EGTA; 10 mM MgCl2; 0.02% Tween20 and 0.1 mg/ml Bovine-y-globulin. Test compounds of the invention were added in reaction buffer in a range of concentrations for 10 minutes at 30° C. in the presence of 20 nM DYRK1A enzyme, 40 μM peptide substrate and 20 μM ATP. Detection reagents (DiscoveRx 90-0083), ADP Hunter Plus Reagent A and then ADP Hunter Plus Reagent B were added. After a following 20 minutes incubation at 30° C., ADP Hunter Plus Stop Solution was added. The fluorescence intensity was measured at 590 nm.

Row | IC50 [1] [µM] | IC50 [2] [µM] | SMILES
1 | 0.243 | 0.01 | Cc1nc2ccc(-c3cc(N)nc(N)c3)nc2n1CC1Cc2ccccc21 (single isomer, unassigned) [Example 113, 4-[3-(bicyclo[4.2.0]octa-1,3,5-trien-7-ylmethyl)-2-methyl-3H-imidazo[4,5-b]pyridin-5-yl]pyridine-2,6-diamine]
2 | 0.075 | 0.006 | Cc1nc2ccc(-c3cc(N)nc(N)c3)nc2n1C[C@H](C)Oc1ccccc1Cl (single isomer, unassigned) [Example 117]
3 | 0.105 | 0.004 | CC[C@@H](Cn1c(C)nc2ccc(-c3cc(N)nc(N)c3)nc21)Oc1ccccc1 (single isomer, unassigned) [Example 119]
4 | 0.161 | 0.003 | CC[C@H](Cn1c(C)nc2ccc(-c3cc(N)nc(N)c3)nc21)Oc1ccccc1 (single isomer, unassigned) [Example 120]
5 | 0.041 | 0.008 | Cc1nc2ccc(-c3cc(N)nc(N)c3)nc2n1C[C@@H](C)N(C)c1ccccc1 (single isomer, unassigned) [Example 121]
6 | 0.122 | 0.02 | Cc1nc2ccc(-c3cc(N)nc(N)c3)nc2n1C[C@H](C)N(C)c1ccccc1 (single isomer, unassigned) [Example 122]
7 | 0.082 | 0.01 | Cc1nc2ccc(-c3cc(N)nc(N)c3)nc2n1C[C@H](C)Oc1cccc(F)c1 (single isomer, unassigned) [Example 123]
8 | 0.061 | 0.006 | Cc1nc2ccc(-c3cc(N)nc(N)c3)nc2n1C[C@@H](C)Oc1cccc(F)c1 (single isomer, unassigned) [Example 124]
9 | 0.151 | 0.022 | COc1cccc(O[C@@H](C)Cn2c(C)nc3ccc(-c4cc(N)nc(N)c4)nc32)c1 (single isomer, unassigned) [Example 125]
10 | 0.271 | 0.055 | COc1cccc(O[C@H](C)Cn2c(C)nc3ccc(-c4cc(N)nc(N)c4)nc32)c1 (single isomer, unassigned) [Example 126]
11 | 0.163 | 0.037 | Cc1cccc(O[C@H](C)Cn2c(C)nc3ccc(-c4cc(N)nc(N)c4)nc32)c1 (single isomer, unassigned) [Example 128]
12 | 0.13 | 0.037 | Cc1nc2ccc(-c3cc(N)nc(N)c3)nc2n1C[C@H](C)Oc1ccc(F)cc1 (single isomer, unassigned) [Example 129]
13 | 0.045 | 0.016 | Cc1ccccc1O[C@@H](C)Cn1c(C)nc2ccc(-c3cc(N)nc(N)c3)nc21 (single isomer, unassigned) [Example 131]
14 | 0.207 | 0.038 | Cc1ccccc1O[C@H](C)Cn1c(C)nc2ccc(-c3cc(N)nc(N)c3)nc21 (single isomer, unassigned) [Example 132]
15 | 0.074 | 0.015 | Cc1nc2ccc(-c3cc(N)nc(N)c3)nc2n1C[C@H](C)Oc1ccccc1F (single isomer, unassigned) [Example 133]
16 | 0.205 | 0.038 | Cc1nc2ccc(-c3cc(N)nc(N)c3)nc2n1C[C@@H](C)Oc1ccccc1F (single isomer, unassigned) [Example 134]
17 | 0.098 | 0.016 | Cc1nc2ccc(-c3cc(N)nc(N)c3)nc2n1C[C@H](C)Sc1ccccc1 (single isomer, unassigned) [Example 135]
18 | 0.247 | 0.028 | Cc1nc2ccc(-c3cc(N)nc(N)c3)nc2n1C[C@@H](C)Sc1ccccc1 (single isomer, unassigned) [Example 136]

Row | IC50 [1] [µM] | IC50 [2] [µM] | SMILES
19 | 0.197 | 0.048 | Cc1nc2ccc(-c3cc(N)nc(N)c3)nc2n1[C@H]1C[C@H]1Cc1ccccc1 (single isomer, unassigned) [Example 137]
20 | 0.1 | 0.052 | Cc1nc2ccc(-c3cc(N)nc(N)c3)nc2n1[C@H]1C[C@@H]1Cc1ccccc1 (single isomer, unassigned) [Example 138]
21 | 0.024 | 0.007 | Cc1nc2ccc(-c3cc(N)nc(N)c3)nc2n1[C@@H]1C[C@@H]1Cc1ccccc1 (single isomer, unassigned) [Example 140]
22 | 0.191 | 0.01 | COc1ccccc1O[C@@H](C)Cn1c(C)nc2ccc(-c3cc(N)nc(N)c3)nc21 (single isomer, unassigned) [Example 141]
23 | 0.223 | 0.093 | Cc1nc2ccc(-c3cc(N)nc(N)c3)nc2n1C[C@H](C)Oc1cccc(Cl)n1 (single isomer, unassigned) [Example 176]
24 | 0.237 | 0.023 | Cc1nc2ccc(-c3cc(N)nc(N)c3)nc2n1C[C@@H](C)Oc1ccc(F)cn1 (single isomer, unassigned) [Example 179]
25 | 0.175 | 0.026 | Cc1nc2ccc(-c3cc(N)nc(N)c3)nc2n1C[C@H](C)Oc1ncccc1Br (single isomer, unassigned) [Example 182]
26 | 0.181 | 0.065 | Cc1nc2ccc(-c3cc(N)nc(N)c3)nc2n1C[C@H](C)Oc1cccc(F)n1 (single isomer, unassigned) [Example 188]
27 | 0.148 | 0.032 | Cc1nc2ccc(-c3cc(N)nc(N)c3)nc2n1C[C@H](C)Oc1ncccc1Cl (single isomer, unassigned) [Example 190]
28 | 0.077 | 0.008 | Cc1nc2ccc(-c3cc(N)nc(N)c3)nc2n1CCc1ccc2c(c1)OCCO2 [Example 77, 4-{3-[2-(2,3-dihydro-1,4-benzodioxin-6-yl)ethyl]-2-methyl-3H-imidazo[4,5-b]pyridin-5-yl}pyridine-2,6-diamine]
29 | 0.037 | 0.007 | Cc1nc2ccc(-c3cc(N)nc(N)c3)nc2n1CCc1ccccc1 [Example 83, 4-[2-methyl-3-(2-phenylethyl)-3H-imidazo[4,5-b]pyridin-5-yl]pyridine-2,6-diamine]
30 | 0.113 | 0.019 | Cc1nc2ccc(-c3cc(N)nc(N)c3)nc2n1Cc1ccnc(F)c1 [Example 84, 4-{3-[(2-fluoropyridin-4-yl)methyl]-2-methyl-3H-imidazo[4,5-b]pyridin-5-yl}pyridine-2,6-diamine]
31 |  | 0.029 | Cc1nc2ccc(-c3cc(N)nc(N)c3)nc2n1CCOc1cccnc1 [Example 216, 4-{2-methyl-3-[2-(pyridin-3-yloxy)ethyl]-3H-imidazo[4,5-b]pyridin-5-yl}pyridine-2,6-diamine]
32 |  | 0.057 | Cc1nc2ccc(-c3cc(N)nc(N)c3)nc2n1CCOc1ccnn1C [Example 218, 4-(2-methyl-3-{2-[(1-methyl-1H-pyrazol-5-yl)oxy]ethyl}-3H-imidazo[4,5-b]pyridin-5-yl)pyridine-2,6-diamine]
33 |  | 0.04 | Cc1nc2ccc(-c3cc(N)nc(N)c3)nc2n1CCOc1ncccn1 [Example 219, 4-{2-methyl-3-[2-(pyrimidin-2-yloxy)ethyl]-3H-imidazo[4,5-b]pyridin-5-yl}pyridine-2,6-diamine]
34 |  | 0.068 | C=CCCn1c(C)nc2ccc(-c3ccnc(N)c3)nc21 [Example 239, 4-[3-(but-3-en-1-yl)-2-methyl-3H-imidazo[4,5-b]pyridin-5-yl]pyridin-2-amine]
35 |  | 0.098 | Cc1nc2ccc(-c3cc(F)nc(N)c3F)nc2n1C1CC1 [Example 241, 4-(3-cyclopropyl-2-methyl-3H-imidazo[4,5-b]pyridin-5-yl)-3,6-difluoropyridin-2-amine]
36 |  | 0.154 | Cc1nc2ccc(-c3c(F)c(N)nc(N)c3F)nc2n1C1CC1 [Example 242, 4-(3-cyclopropyl-2-methyl-3H-imidazo[4,5-b]pyridin-5-yl)-3,5-difluoropyridine-2,6-diamine]
